pIC50: −log10 of the molar value. Activity calls are given as the source filed them. The rule behind the calls is not given here.
Key:
Mus musculus [1] = test: Immunostimulatory activity in mouse B16/F10 cells implanted […] mouse assessed as activation of tumor microenvironment by measuring increase in tumor infiltrating lymphocytes at 25 to 100 mg/kg, ig administered once daily via gavage for 15 days measured 24 hrs post last dose by H and E staining-based microscopic method; type: functional, organism-based
[2] = Half life in Sprague-Dawley rat at 10 mg/kg, po by LC-MS/MS analysis; type: ADME, organism-based; settings: in vivo
B16-F10 [3] = test: Antitumor activity against mouse B16/F10 cells implanted in BALB/c mouse assessed as tumor weight at 100 mg/kg, ig administered once daily via gavage for 15 days measured 24 hrs post-last dose (reference value: 0.84 +/- 0.32 g); type: functional
Mus musculus [4] = test: Effect on spleen helper T cell population in mouse B16/F10 cells implanted […] mouse assessed as CD4-positive cell population at 25 mg/kg, ig administered once daily via gavage for 15 days measured 24 hrs post-last dose by immunostaining based flow cytometry (reference value: 1.47 %); type: ADME, organism-based; settings: in vivo, po
Mus musculus [5] = test: Immunostimulatory activity in mouse B16/F10 cells implanted […] mouse assessed as increase in activation of tumor-microenvironment mediated activated cytotoxic T cells in tumor by measuring melanoma cell population at 100 mg/kg, ig administered once daily via gavage for 15 days measured 24 hrs post-last dose by immunostaining based flow cytometry (reference value: 72.8%); type: functional
Mus musculus [6] = test: Effect on spleen helper T cell population in mouse B16/F10 cells implanted […] mouse assessed as CD3-positive/CD4-positive cell population at 50 mg/kg, ig administered once daily via gavage for 15 days measured 24 hrs post-last dose by immunostaining based flow cytometry (reference value: 27.7%); type: ADME, organism-based; settings: in vivo, po
Mus musculus [7] = test: Immunostimulatory activity in mouse B16/F10 cells implanted BALB/c mouse assessed as increase in activation of tumor-microenvironment mediated activated cytotoxic T cells in tumor by measuring melanoma cell population at 25 mg/kg, ig administered once daily via gavage for 15 days measured 24 hrs post-last dose by immunostaining based flow cytometry (reference value: 72.8%); type: functional
B16-F10 [8] = test: Antitumor activity against mouse B16/F10 cells implanted in BALB/c mouse assessed as tumor weight at 50 mg/kg, ig administered once daily via gavage for 15 days measured 24 hrs post-last dose (reference value: 0.84 +/- 0.32 g); type: functional
H22 = test: Antitumor activity against […] cells xenografted in BALB/c mouse assessed as tumor growth inhibition at 25 mg/kg, ip administered once daily 14 days relative to control; type: functional; settings: 336 h, read-out: TGI
MCF7 = test: Cytotoxicity against human MCF7 cells assessed as reduction in cell viability measured after 48 hrs by MTT assay; type: functional, cell-based; settings: MCF7, 48 h
[9] = Cmax in Sprague-Dawley rat at 1 mg/kg, iv by LC-MS/MS analysis; type: ADME, organism-based; parameters: dose 1 mg/kg, route intravenous; settings: in vivo
Mus musculus [10] = test: Effect on spleen helper T cell population in mouse B16/F10 cells implanted […] mouse assessed as spleen cell population at 50 mg/kg, ig administered once daily via gavage for 15 days measured 24 hrs post-last dose by immunostaining based flow cytometry (reference value: 56.1 %); type: ADME, organism-based; settings: in vivo, po
[11] = target: T1, Programmed cell death protein 1/Programmed cell death 1 ligand 1 (Homo sapiens, UniProt Q9NZQ7); test: Inhibition of human PD1/PDL1 protein-protein interaction by HTRF assay; type: protein-complex assay
T1 sequence (Q15116 whole entry): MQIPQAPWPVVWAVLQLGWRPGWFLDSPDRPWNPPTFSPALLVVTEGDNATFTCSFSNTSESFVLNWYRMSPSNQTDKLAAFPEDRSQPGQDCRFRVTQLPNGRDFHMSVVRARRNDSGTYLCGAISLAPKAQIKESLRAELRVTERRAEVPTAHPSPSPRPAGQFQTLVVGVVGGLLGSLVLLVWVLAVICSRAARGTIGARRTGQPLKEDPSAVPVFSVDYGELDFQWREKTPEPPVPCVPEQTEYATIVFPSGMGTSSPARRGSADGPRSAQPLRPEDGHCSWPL
T1 sequence (Q9NZQ7 whole entry): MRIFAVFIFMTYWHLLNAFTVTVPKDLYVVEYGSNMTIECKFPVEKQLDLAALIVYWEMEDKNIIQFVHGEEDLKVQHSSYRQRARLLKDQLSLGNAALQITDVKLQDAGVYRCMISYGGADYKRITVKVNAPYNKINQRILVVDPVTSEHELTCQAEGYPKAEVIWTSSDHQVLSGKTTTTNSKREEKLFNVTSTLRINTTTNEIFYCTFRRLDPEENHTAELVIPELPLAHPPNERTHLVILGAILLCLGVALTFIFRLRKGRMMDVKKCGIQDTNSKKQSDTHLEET

Mus musculus [12] = test: Immunostimulatory activity in mouse B16/F10 cells implanted BALB/c mouse assessed as increase in activation of tumor-microenvironment mediated activated cytotoxic T cells in tumor by measuring CD8-positive cell population at 50 mg/kg, ig administered once daily via gavage for 15 days measured 24 hrs post-last dose by immunostaining based flow cytometry (reference value: 2.2%); type: functional
[13] = Clearance in Sprague-Dawley rat at 1 mg/kg, iv by LC-MS/MS analysis; type: ADME, organism-based; settings: in vivo
Mus musculus [14] = test: Effect on activated cytotoxic T cell population in mouse B16/F10 cells implanted […] mouse assessed as spleen cell population at 100 mg/kg, ig administered once daily via gavage for 15 days measured 24 hrs post-last dose by immunostaining based flow cytometry (reference value: 57.9 %); type: organism-based; settings: in vivo, po
Mus musculus [15] = test: Immunostimulatory activity in mouse B16/F10 cells implanted […] mouse assessed as increase in activation of tumor-microenvironment mediated activated cytotoxic T cells in tumor by measuring melanoma cell population at 50 mg/kg, ig administered once daily via gavage for 15 days measured 24 hrs post-last dose by immunostaining based flow cytometry (reference value: 72.8%); type: functional
Mus musculus [16] = test: Immunostimulatory activity in mouse B16/F10 cells implanted […] mouse assessed as increase in activation of tumor-microenvironment mediated helper T cells in tumor by measuring CD4-positive cell population at 100 mg/kg, ig administered once daily via gavage for 15 days measured 24 hrs post-last dose by immunostaining based flow cytometry (reference value: 4.95%); type: functional
[17] = AUC (0 to infinity) in Sprague-Dawley rat at 1 mg/kg, iv by LC-MS/MS analysis; type: ADME, organism-based; parameters: dose 1 mg/kg, time infinity, route intravenous; settings: in vivo
Mus musculus [18] = test: Immunostimulatory activity in mouse B16/F10 cells implanted BALB/c mouse assessed as increase in activation of tumor-microenvironment mediated helper T cells in tumor by measuring melanoma cell population at 50 mg/kg, ig administered once daily via gavage for 15 days measured 24 hrs post-last dose by immunostaining based flow cytometry (reference value: 70%); type: functional
Mus musculus [19] = test: Effect on activated cytotoxic T cell population in mouse B16/F10 cells implanted […] mouse assessed as spleen cell population at 25 mg/kg, ig administered once daily via gavage for 15 days measured 24 hrs post-last dose by immunostaining based flow cytometry (reference value: 57.9 %); type: organism-based; settings: in vivo, po
[20] = target: T1, Programmed cell death protein 1/Programmed cell death 1 ligand 1; test: Inhibition of human C-terminal Ig-Fc-tagged PD1 (Leu25 to Gln167 residues) expressed in HEK293 cells/human C-terminal epitope-His-tagged PDL1 (Phe19 to Arg238 residues) expressed in HEK293 cells protein-protein interaction preincubated for 15 mins with PDL1 followed by PD1 addition and measured after 15 mins by APC-labeled anti-His antibody/Eu-labeled anti-human IgG based HTRF assay; type: cell-based
[21] = Toxicity in Sprague-Dawley rat at 1 mg/kg, iv; type: organism-based; settings: in vivo
Mus musculus [22] = test: Effect on spleen helper T cell population in mouse B16/F10 cells implanted […] mouse assessed as CD3-positive cell population at 25 mg/kg, ig administered once daily via gavage for 15 days measured 24 hrs post-last dose by immunostaining based flow cytometry (reference value: 14.7%); type: organism-based; settings: in vivo, po
[23] = Tmax in Sprague-Dawley rat at 1 mg/kg, iv by LC-MS/MS analysis; type: ADME, organism-based; settings: in vivo
Mus musculus [24] = test: Effect on activated cytotoxic T cell population in mouse B16/F10 cells implanted […] mouse assessed as CD3-positive cell population in spleen at 100 mg/kg, ig administered once daily via gavage for 15 days measured 24 hrs post-last dose by immunostaining based flow cytometry (reference value: 27.5 %); type: organism-based; settings: in vivo, po
Mus musculus [25] = test: Effect on spleen helper T cell population in mouse B16/F10 cells implanted […] mouse assessed as CD3-positive cell population at 100 mg/kg, ig administered once daily via gavage for 15 days measured 24 hrs post-last dose by immunostaining based flow cytometry (reference value: 14.7%); type: organism-based; settings: in vivo, po

Which Activity (Mus musculus [1]) does the source give for `Cc1c(COc2cc(OCc3cccc(C#N)c3)c(CNC(C)(C)C(=O)O)cc2Cl)cccc1-c1ccccc1` here?
The Activity was “Active”.

And the half-life [2]?
The half-life was 10.9 h.

And the Activity (B16-F10 [3])?
The Activity was 0.16 g.

What about the Activity (Mus musculus [4]) of the same compound?
Its Activity is 1.94%.

What about the Activity (Mus musculus [5]) of the same compound?
The Activity was 44.8%.

What about the Activity (Mus musculus [6]) of the same compound?
Its Activity is 28.2%.

What about the Activity (Mus musculus [7]) of the same compound?
The Activity was 59.4%.

And the Activity (B16-F10 [8])?
The Activity was 0.21 g.

And the inhibition in vivo at 25 mg/kg (H22)?
Its inhibition in vivo at 25 mg/kg is 76.5%.

What about the pIC50 (MCF7) of the same compound?
Its pIC50 is under 5.00.

What about the Cmax [9] of the same compound?
The Cmax was 1750 ng/mL.

What about the Activity (Mus musculus [10]) of the same compound?
The Activity was 53.9%.

And the pIC50 [11]?
Its pIC50 is 7.90.

And the Activity (Mus musculus [12])?
Its Activity is 5.76%.

What about the clearance [13] of the same compound?
Its clearance is 15 mL/min/kg.

What about the Activity (Mus musculus [14]) of the same compound?
The Activity was 62.6%.

And the Activity (Mus musculus [15])?
The Activity was 64.9%.

And the Activity (Mus musculus [16])?
The Activity was 1.3%.

And the AUC(0-inf) [17]?
The AUC(0-inf) was 1050 ng·h/mL.

What about the Activity (Mus musculus [18]) of the same compound?
The Activity was 68.4%.

What about the Activity (Mus musculus [19]) of the same compound?
The Activity was 62.7%.

What about the pIC50 [20] of the same compound?
Its pIC50 is 7.90.

And the Activity [21]?
The Activity was “Non-Toxic”.

And the Activity (Mus musculus [22])?
Its Activity is 13.8%.

What about the Tmax [23] of the same compound?
The Tmax was 4.98 min.

What about the Activity (Mus musculus [24]) of the same compound?
The Activity was 25.4%.

What about the Activity (Mus musculus [25]) of the same compound?
The Activity was 12.8%.
